Results as given in a melting point compilation (Tetko et al.; mined from patent text by program, amines drawn as free bases though some values may be those of a salt).

First: N#Cc1ccc(N2CCN(Cc3cnc4c(c3)NC(=O)[C@@H]3CCCN43)CC2)cc1F
Second: CC(=O)N1CCN(c2cc3c(c(C)c2F)c(=O)c(C(=O)O)cn3C2CC2)CC1
The melting point of the first is lower: 251 to 255 °C for the first, 261 to 263 °C for the second.

First: CCc1nc(Cl)c([N+](=O)[O-])c(NC(C)C)n1
Second: COC(=O)C1=C(C)NC(C)=C(c2nc(CCl)ns2)C1c1cccc([N+](=O)[O-])c1 (stereo unspecified)
The melting point of the first is lower: 51 to 52 °C for the first, 205 to 206 °C for the second.

First: Cc1c(CCC(=O)O)n(Cc2ccc(-n3ccnc3)cc2)c2ccc(F)cc12
Second: O=C1CCCc2c1c1cc(F)ccc1n2Cc1ccc(F)cc1
The melting point of the first is higher: 222 °C for the first, 182 to 183 °C for the second.

Compared with `Cc1cc(Br)cnc1C#N`, `N#Cc1ncn2c(-c3cccnc3)ccnc12` is higher in melting point: 86 to 88 °C for the first, 258 to 260 °C for the second.

First: CC(C)(CO)Nc1nc(-c2ccc(C#N)c(F)c2)cs1
Second: CC(C)(C)OC(=O)c1nc(-c2ccc([N+](=O)[O-])cc2)[nH]c1-c1ccncc1
The melting point of the first is lower: 128 to 130 °C for the first, > 280 °C for the second.

Compared with `O=S1NC(Cc2cc3ccccc3s2)=NO1` (stereo unspecified), `NC(=O)c1cc2ccccc2cc1N` is higher in melting point: 127 to 129 °C for the first, 234 to 235 °C for the second.

Compared with `O=C(O)CCc1c(-c2ccccc2)noc1O`, `N#Cc1cccc(CCC(=O)O)c1` is lower in melting point: 183 to 184 °C for the first, 95 °C for the second.

First: Cc1cc(NC(=O)C2=C(O)c3ccc4ccccc4c3S(=O)(=O)N2C)no1
Second: COC(=O)C(=O)c1ccc(OCCOc2ccc3ccccc3c2)c(C)c1
The melting point of the first is higher: 253 °C for the first, 118 to 119 °C for the second.

First: COc1cc(OCC(=O)O)c(C)cc1SCc1ccc(-c2cccc(OC(F)(F)F)c2)cc1
Second: CCn1cc(C(=O)C(=O)O)c2ccc(-c3ccc(OC(F)(F)F)cc3)cc21
The melting point of the first is lower: 137 °C for the first, 204 to 205 °C for the second.

First: CCN(CC)C(=O)Cc1nn(-c2ccccc2)c(=O)c2c1c1ccc(Cl)cc1n2C
Second: CCN(CC)Cc1nc(-c2ncn3c2CN(C)C(=O)c2ccccc2-3)no1
The melting point of the first is higher: 167 to 168 °C for the first, 153 to 154 °C for the second.

Compared with `CCOC(=O)C1=C(C)NC(C)=C(C(=O)OCC)C1c1ccccc1/C=C(\C)C(=O)O`, `CCCOc1ccccc1-c1cc(C)c(C(=O)O)c(=O)[nH]1` is lower in melting point: 205 to 207 °C for the first, 175 to 177 °C for the second.

First: CCOC(=O)c1ccc(C#Cc2ccc(C)cc2)c(OC)c1
Second: Cc1ccc(C(=O)c2cccc(S)n2)cc1
The melting point of the first is lower: 71 to 73 °C for the first, 179 to 181 °C for the second.

Compared with `O=C(O)c1ccc2[nH]c3ccccc3c2c1`, `Brc1ccc2c(c1)CN(Cc1c[nH]c3ccccc13)C2` is lower in melting point: 271 to 272 °C for the first, 188 to 190 °C for the second.

Compared with `O=c1nc(-c2ccc(-c3ccccc3)cc2)sc2ccccc12`, `O=C(O)c1ccc(S(=O)(=O)Oc2ccc(-c3ccc(-c4c(Cc5ccccc5)sc5ccccc45)cc3)cc2)cc1O` is higher in melting point: 170 to 171 °C for the first, 236 to 238 °C for the second.

First: O=C(Nc1ccccc1)Oc1cc(N2C(=O)C3=C(CCCC3)C2=O)c(F)cc1Cl
Second: NC(=O)C(OC(=O)Nc1cccc(Cl)c1)(C(N)=O)c1ccccc1
The melting point of the first is lower: 149 to 151 °C for the first, 196 to 198 °C for the second.

First: Cc1cc(C)c(Nc2nc(C)ncc2S(=O)(=O)c2ccc(OCc3ccccc3)cc2)c(C)c1
Second: O=C(O)C1C2C=CC(C2)C1NS(=O)(=O)c1ccc(OCc2ccccc2)cc1 (stereo unspecified)
The melting point of the first is lower: 166 to 168 °C for the first, 201 to 203 °C for the second.

First: Nc1ccc(C=Cc2ccc3ccccc3n2)cc1
Second: Cc1ccc(C(O)(c2ccccc2)c2ccncc2)cc1 (stereo unspecified)
The melting point of the first is lower: 178 to 180 °C for the first, 192 to 195 °C for the second.

First: O=C(c1ccc(F)cc1)N1CCCC(c2nc(-c3ccc(F)cc3)no2)C1 (stereo unspecified)
Second: CN1CCC(c2[nH]c(=O)c3ccccc3c2-c2ccc(Cl)cc2)CC1
The melting point of the first is lower: 118 to 122 °C for the first, 254 to 256 °C for the second.

`Nc1c(F)c(N2CCNCC2)c(F)c2c1c(=O)c(C(=O)O)cn2C1CC1` and `CC1CCc2c(-n3ccnc3)c(F)cc3c(=O)c(C(=O)O)cn1c23` (stereo unspecified) cannot be ordered by melting point: 257 to 259 °C for the first, > 250 °C for the second.

First: CCCCCCCCCCc1nnn(CC(=O)Nc2c(C(C)C)cccc2C(C)C)n1
Second: CCCCCCCSc1nc(C)c(O)c(C)n1
The melting point of the first is lower: 108 to 110 °C for the first, 110 to 111 °C for the second.

First: c1ccc2c(CCN=c3sc4ccccc4s3)c[nH]c2c1
Second: O=S1(=O)c2ccccc2N(c2cc(F)cc(F)c2)c2ccccc21
The melting point of the first is lower: 149 to 150 °C for the first, 255 to 258 °C for the second.

First: CC(=S)NCC1CN(c2ccc3c(c2)CC(C(C)(C)C)N3C=O)C(=O)O1 (stereo unspecified)
Second: Cc1cc(C#C[Si](C)(C)C)ccc1-n1c(C(F)(F)F)nn(C)c1=S
The melting point of the first is higher: 219 to 221 °C for the first, 90 to 93 °C for the second.

Compared with `CC(=O)NCCNC(=O)c1[nH]c(C)c(-c2nc3ccc(C(=O)c4ccccc4)cc3[nH]2)c1C`, `CN1CC(C(=O)COC(=O)c2ccccc2)CC2c3cccc4[nH]cc(c34)CC21` (stereo unspecified) is lower in melting point: 272 to 273 °C for the first, 163 to 165 °C for the second.

First: CC(C)(C)OCCOc1cc(NC(=O)OC(C)(C)C)c([N+](=O)[O-])cc1I
Second: COC(=O)c1ccc(NC(C)=O)c([N+](=O)[O-])c1
The melting point of the first is lower: 113 to 116 °C for the first, 123 to 124 °C for the second.

Going from `COc1ccc(C(C#N)=NOS(=O)(=O)C(C)C)cc1` to `CC(C)N(C(=O)c1ccc(N)cc1)C(C)C`, the melting point rises from 72 °C to 170 °C.

First: N#Cc1cc([N+](=O)[O-])ccc1N1CCC(O)CC1
Second: Cc1cccc2c(=O)[nH]c(CC3CN4CCC3CC4)nc12 (stereo unspecified)
The melting point of the first is lower: 114 to 115 °C for the first, 187 to 188 °C for the second.

First: CCOc1cc2c(c(OC(C)=O)c1OCC)=NC(=O)C(=O)N=2
Second: CC(=O)n1nc(C)c(Oc2cc(Cl)cc(Cl)c2)c1C
The melting point of the first is higher: 321 to 322 °C for the first, < 60 °C for the second.

Compared with `CC(=O)OC1CSC(Oc2ccc(-c3ccnc(F)c3)nc2)C(OC(C)=O)C1OC(C)=O` (stereo unspecified), `CC(=O)OC1CSC(Oc2ccc(-c3ccnc(Cl)c3)nc2)C(OC(C)=O)C1OC(C)=O` (stereo unspecified) is higher in melting point: 179 °C for the first, 226 °C for the second.

First: Cc1nc(-c2ccc(C(F)(F)F)cc2)sc1CSc1cc(C(C)C)c(OCC(=O)O)c(C(C)C)c1
Second: CCc1ccc2oc(C(=O)Nc3ccc(-c4ccc(S(=O)(=O)NC(C(=O)OC)C(C)C)cc4)cc3)c(C)c2c1OCc1ccccc1 (stereo unspecified)
The melting point of the first is lower: 161 to 163 °C for the first, 191 to 193 °C for the second.

First: O=C(O)c1ccc(Cl)cc1NCc1cccnc1
Second: COC(=O)c1ccc(Cl)cc1NC(=O)CSc1cccc(OC)c1
The melting point of the first is higher: 235 to 236 °C for the first, 72 to 73 °C for the second.

First: COC(=O)c1cc2cc(Br)ccc2nc1Cl
Second: COc1ccc(C(=O)Nc2ccc3ccc(Cl)nc3n2)cn1
The melting point of the first is lower: 176 to 177 °C for the first, 270 °C for the second.

Compared with `O[C@@H]1CN=C(c2cccc(Cl)c2)O[C@H]1c1ccccc1` (racemic), `CC(=O)c1cc(-c2ccncc2)sc1Oc1ccccc1` is higher in melting point: 100 °C for the first, 103 to 105 °C for the second.

First: O=C(Nc1cccc(-c2ccnc3c(C(=O)c4cccs4)cnn23)c1)c1ccc(-n2cccc2)cc1
Second: Cc1ccc(F)cc1C(=O)Nc1ccc(C(=O)N2Cc3cccn3-c3ncccc32)cn1
The melting point of the first is lower: 224 to 226 °C for the first, 226 to 234 °C for the second.

Compared with `COC(=O)CCc1oc(-n2ccnc2)nc1-c1ccc(Cl)cc1`, `CN(C)c1ccc(C(=O)Nc2cn3cc(-n4ccnc4)ccc3n2)cc1` is higher in melting point: 95 to 96 °C for the first, 247 to 248 °C for the second.

First: Cc1cc2c(c3c1NC(=O)CC3)OC(CN=[N+]=[N-])C2 (stereo unspecified)
Second: CC1CC(=Cc2ccccc2Cl)C(=O)O1 (stereo unspecified)
The melting point of the first is higher: 146 to 149 °C for the first, 48 °C for the second.

First: COc1cc(C)nc(OC)c1NC(=O)CN1CCN(CCSc2nc3ccccc3o2)CC1
Second: Cc1ccc2c(n1)N(CCCN1CCCC1)c1ccccc1N(C)C2=O
The melting point of the first is lower: 113 to 115 °C for the first, 134 to 136 °C for the second.

Compared with `Nc1ncnc2c1nc(SCC(O)COc1ccccc1)n2C1OC(CO)C(O)C1O` (stereo unspecified), `C=Cc1c(N)nc(-c2ccc(Cl)c(OC)c2F)nc1C(=O)OCc1ccccc1` is higher in melting point: 100 to 110 °C for the first, 119 to 121 °C for the second.

Compared with `COc1ccc(SC2CC(=O)N2CC(=O)NCCCCCCc2ccc(Cl)cc2)cc1` (stereo unspecified), `COC(=O)CCc1nc(C=O)ccc1OCCCC/C=C/c1ccc(OC)cc1` is lower in melting point: 84 to 86 °C for the first, 66 to 69 °C for the second.

Compared with `CCCCn1c(=O)c2c(ncn2S(=O)(=O)Cc2ccccc2)n(CCCC)c1=O`, `CCCCCC(C)C(C)c1cc(O)c2c(c1)OC(C)(C)C1=C2CN(CC(=O)Nc2ccccc2)CC1` (stereo unspecified) is higher in melting point: 117 to 118 °C for the first, 125 to 127 °C for the second.

First: CC(Oc1ccccc1C(C)C)C(=O)OC1CC(O)C=C2C=CC(C)C(CCC3CC(O)CC(=O)O3)C21 (mixture of isomers)
Second: CC(C)(C)OC(=O)NC1CCCCCC=CC2CC2(C(=O)NS(=O)(=O)C2CC2)NC(=O)C2CC(OC(=O)c3ccc(Cl)cc3)CN2C1=O (stereo unspecified)
The melting point of the first is lower: 138 to 141 °C for the first, 143 to 145 °C for the second.

First: Nc1ccc(-c2ccncc2)cn1
Second: Cc1cc(C)cc(Oc2ccc(-n3ccnc3)nn2)c1
The melting point of the first is higher: 192 to 195 °C for the first, 170 °C for the second.

First: CC1(C)C=Cc2c(cc(O)c3c(=O)c4cc5ccccc5cc4[nH]c23)O1
Second: CCOc1cc2c(c3c1OC(C)(C)C3)C(c1cccc(N3C(=O)NC(C)(C)C3=O)c1)=NC(C)(C)C2
The melting point of the first is lower: 225 °C for the first, 237 to 238 °C for the second.

First: Cn1c(COc2ccc(CC3SC(=O)NC3=O)cc2)cc2cccnc21 (stereo unspecified)
Second: CC(C)C1CC(=O)Nc2nc(C#N)c3ncccc3c21 (stereo unspecified)
The melting point of the first is lower: 183 to 185 °C for the first, 220 °C for the second.

First: CC(C)(C)c1cc(C=Cc2ccccc2NC(=O)NC2CCCCCC2)cc(C(C)(C)C)c1O
Second: Cc1cc(NS(=O)(=O)c2ccccc2F)cc(C)c1S(=O)(=O)C[N+](=O)[O-]
The melting point of the first is higher: 203 to 206 °C for the first, 175 to 177 °C for the second.

First: CCCN(CCC)S(=O)(=O)c1cc(C2=CCC(=O)O2)ccc1Cl
Second: O=C(c1ccc(Cl)cc1Cl)C1(n2cncn2)CC1
The melting point of the first is higher: 118 to 121 °C for the first, 55 to 56 °C for the second.

First: COc1cc(NC(=S)NCCN)cc(OC)c1
Second: COc1ccccc1C1SCCCS1
The melting point of the first is lower: 125 to 126 °C for the first, 127 to 128 °C for the second.

Compared with `CC(=O)C=Cc1ccc(Br)cc1`, `N#Cc1ccc(CCC(N)=O)cc1` is higher in melting point: 82 to 84 °C for the first, 220 °C for the second.

First: COC1(OC)CCC(O)(c2ccc(C)cc2)CC1
Second: O=C(O)[C@H](Cc1ccc(O)cc1)NC(=O)C1(NC(=O)C2(S)CCCC2)CCCC1
The melting point of the first is higher: 93 to 97 °C for the first, 90 °C for the second.

First: Clc1nc2c(c(N3CCCC3)n1)SCCC2
Second: CC1(O)CCC2(C)C(CCC3C2CCC2(C)C(c4cc(CO)on4)CCC32)C1 (stereo unspecified)
The melting point of the first is lower: 76 °C for the first, 198 to 200 °C for the second.

First: O=C(CO)N1CCN(C(=O)CO)CC1
Second: ON=C(CCC(CN1CCN(c2ccccn2)CC1)C(=NO)c1ccccc1)c1ccccc1 (stereo unspecified)
The melting point of the first is higher: 169 to 173 °C for the first, 75 to 78 °C for the second.

In the case of `Cn1c(CON)ncc(O)c1=O`, the melting point is reported as 106 °C.
